Results from patent US7338977B2, “Anti-viral compounds” (Aids Care Pharma Limited, priority 2003, dated 2008).
Values after ≈ are worked out from the molar mass of the structure shown.

Legend:
[1] = test system: HIV; details: cited from earlier work; for REDUCTION IN VIRAL LOAD: patients, drug used on its own
[2] = human, in vivo; cited from earlier work
[3] = molecular target: T1, viral envelope protein gp120 interaction with the cellular receptor protein CD4 (Human immunodeficiency virus type 1 group M subtype B, UniProt P04578); assay: biochemical; assay type: binding, HIV; details: for activity in words, compared with AC-1: summary of Table 1, both tests
T1 construct: viral envelope protein gp120
Procedure: (§1) Two tests were performed: Test 1 was performed using infected blood, while Test 2 used cell cultures.
All stocks solutions were made 25 mM in distilled water and tested at same concentrations.
The procedure was carried out as follows: • 1 Plastic plates were coated with cellular receptor protein CD4. • 2 The plates were washed well before adding a predetermined, appropriate quantity of viral envelope protein gp120 for binding to CD4. • 3 To see inhibition by compounds, different concentrations were added a few minutes before adding gp120. • 4 The mixture was incubated at 37° C. for binding. • 5 The plates were then flashed well and bound gp120 was detected by reaction with anti-HIV antibodies, incubated for 12 hours at 4° C. • 6 The amount of antibody bound was detected by adding anti-Human antibodies attached to an enzyme horse raddish peroxidase. • 7 After another incubation and wash, the quantity of the enzyme was measured by adding substrate o-phenyl diamine (OPD). • 8 The colour developed was read at 492 nm. • 9 All incubations took three days for adding different reagents. The percentage of inhibition by compounds, was calculated from the standard curve obtained by using different dilutions of gp120 alone. Test 2

[4] = test system: wild-type HIV-1 (111a); assay: Test 2: syncytium formation in HIV-1 infected CEM cell cultures; assay type: cell-based; details: CEM cells, 4 days at 37° C., syncytium formation inhibited by 50%; for EC50: Human immunodeficiency virus 1, CCRF-CEM, 96 h
Procedure: as §1
The results shown in Table 1 for test 2 were obtained by testing cell cultures in accordance with the following procedure.
CEM cells were suspended at approximately 250,000 cells per milliliter of culture medium and infected with wild-type HIV-1 (111a) at approximately 100 times the 50% cell culture infective dose (CCID50) per milliliter. Then 100 μl of the infected cell suspensions were added to 200 μl microtiter plate wells containing 100 μl of an appropriate dilution of the test compounds. After 4 days incubation at 37° C. the cell cultures were microscopically examined for syncytium formation.

[5] = test system: HIV-1; assay: Anti-HIV EC50 in cell cultures (benchmark AZT); details: in vitro
Description: The antigen Agp120 assay—the virus related antigen—is related to the number of virus particles produced by measuring glycoprotein gp120 in infected cell cultures.
The therapeutic index is selected so as not to damage healthy cells.

[6] = test system: HIV-1; details: cells protected from HIV infection, cell cultures; cited from earlier work
[7] = test system: cell growth; details: cited from earlier work
[8] = cited from earlier work

Nc1nc(NC2CC2)c2ncn([C@H]3C=C[C@@H](CO)C3)c2n1 [Abacavir]
REDUCTION IN VIRAL LOAD [1]: 50–90%

CC(C)CN(C[C@@H](O)[C@H](Cc1ccccc1)NC(=O)O[C@H]1CCOC1)S(=O)(=O)c1ccc(N)cc1 [Amprenavir]
REDUCTION IN VIRAL LOAD [1]: 99% | SIDE EFFECTS [2]: severe rash

O=C(O)COc1cc(OCC(=O)O)c2cc1C(c1ccc(F)cc1)c1cc(c(OCC(=O)O)cc1OCC(=O)O)C(c1ccc(F)cc1)c1cc(c(OCC(=O)O)cc1OCC(=O)O)C(c1ccc(F)cc1)c1cc(c(OCC(=O)O)cc1OCC(=O)O)C2c1ccc(F)cc1 (centres unmarked) [BC070202A]
EC50 [3]: 75 µM | % inhibition of gp120/CD4 binding ([3]; Conc 12.5 um): 24% | % inhibition of gp120/CD4 binding ([3]; Conc 25 um): 24% | % inhibition of gp120/CD4 binding ([3]; Conc 50 um): 31% | % inhibition of gp120/CD4 binding ([3]; Conc 100 um): 54% | activity in words, compared with AC-1 [3]: much less active than the compound AC-1 | EC50 [4]: ≥ 20 µg/mL

O=C(O)COc1c(O)c2cc(c1O)C(c1ccc(F)cc1)c1cc(c(O)c(OCC(=O)O)c1O)C(c1ccc(F)cc1)c1cc(c(O)c(OCC(=O)O)c1O)C(c1ccc(F)cc1)c1cc(c(O)c(OCC(=O)O)c1O)C2c1ccc(F)cc1 (centres unmarked) [BC130202A]
EC50 [3]: 5 µM | % inhibition of gp120/CD4 binding ([3]; Conc 1.56 um): 19% | % inhibition of gp120/CD4 binding ([3]; Conc 3.125 um): 32% | % inhibition of gp120/CD4 binding ([3]; Conc 6.25 um): 46% | % inhibition of gp120/CD4 binding ([3]; Conc 12.5 um): 56% | % inhibition of gp120/CD4 binding ([3]; Conc 25 um): 70% | % inhibition of gp120/CD4 binding ([3]; Conc 50 um): 82% | % inhibition of gp120/CD4 binding ([3]; Conc 100 um): 90% | activity in words, compared with AC-1 [3]: active | EC50 [4]: 10 µg/mL (≈ 8.61 µM)

CC(C)Nc1cccnc1N1CCN(C(=O)c2cc3cc(NS(C)(=O)=O)ccc3[nH]2)CC1 [Delaviridine]
REDUCTION IN VIRAL LOAD [1]: 50–90% | SIDE EFFECTS [2]: skin reaction

O=c1[nH]cnc2c1ncn2[C@H]1CC[C@@H](CO)O1 [Didanosine]
REDUCTION IN VIRAL LOAD [1]: 50–90% | SIDE EFFECTS [2]: peripheral neuropathy, nausea vomiting, pancreatis

O=C1Nc2ccc(Cl)cc2[C@@](C#CC2CC2)(C(F)(F)F)O1 [Efavirenz]
REDUCTION IN VIRAL LOAD [1]: 50–90% | SIDE EFFECTS [2]: skin reaction

CC(C)(C)NC(=O)[C@@H]1CN(Cc2cccnc2)CCN1C[C@@H](O)C[C@@H](Cc1ccccc1)C(=O)N[C@H]1c2ccccc2C[C@H]1O [Indinavir]
REDUCTION IN VIRAL LOAD [1]: 99%

Nc1ccn([C@@H]2CS[C@H](CO)O2)c(=O)n1 [Lamivudine]
SIDE EFFECTS [2]: gastrointestinal

Cc1c(O)cccc1C(=O)N[C@@H](CSc1ccccc1)[C@H](O)CN1C[C@H]2CCCC[C@H]2C[C@H]1C(=O)NC(C)(C)C [Nelfinavir]
REDUCTION IN VIRAL LOAD [1]: 99% | SIDE EFFECTS [2]: diarrohea, nausea

Cc1ccnc2c1NC(=O)c1cccnc1N2C1CC1 [Nevirapinc]
REDUCTION IN VIRAL LOAD [1]: 50–90% | SIDE EFFECTS [2]: skin reaction

CC(C)c1nc(CN(C)C(=O)N[C@H](C(=O)N[C@@H](Cc2ccccc2)C[C@H](O)[C@H](Cc2ccccc2)NC(=O)OCc2cncs2)C(C)C)cs1 [Ritonavir]
REDUCTION IN VIRAL LOAD [1]: 99% | SIDE EFFECTS [2]: diarrhoea nausea,

CC(C)(C)NC(=O)[C@@H]1C[C@@H]2CCCC[C@@H]2CN1C[C@@H](O)[C@H](Cc1ccccc1)NC(=O)[C@H](CC(N)=O)NC(=O)c1ccc2ccccc2n1 [Saquinavir]
REDUCTION IN VIRAL LOAD [1]: 99% | SIDE EFFECTS [2]: loose stools, nausea,

Cc1cn([C@H]2C=C[C@@H](CO)O2)c(=O)[nH]c1=O [Stavudine]
REDUCTION IN VIRAL LOAD [1]: 50–90% | SIDE EFFECTS [2]: peripheral neuropathy

Nc1ccn([C@H]2CC[C@@H](CO)O2)c(=O)n1 [Zalcitabine]
REDUCTION IN VIRAL LOAD [1]: 50–90%

Cc1cn([C@H]2C[C@H](N=[N+]=[N-])[C@@H](CO)O2)c(=O)[nH]c1=O [Zidovudine]
Therapeutic index (TC50/EC50 ratio) [5]: > 62,500 | EC50 [6]: ~16 nM | REDUCTION IN VIRAL LOAD [1]: 50–90% | benefit in treating HIV-infected individuals ([1]; used by itself): no benefits in treating HIV-infected individuals | CC50 [7]: > 1 mM

dextran sulphate
stability after oral intake ([8]; before entry into the plasma): degrades after oral intake before entry into the plasma | oral absorption [8]: poorly absorbed orally

dodecapotassium acetate of p-bromopyrogallol P—F-phenyl tetramer [AC-1]
% inhibition of gp120/CD4 binding ([3]; Conc 0.39 um): 48% | % inhibition of gp120/CD4 binding ([3]; Conc 0.78 um): 55% | % inhibition of gp120/CD4 binding ([3]; Conc 1.56 um): 62% | % inhibition of gp120/CD4 binding ([3]; Conc 3.125 um): 70% | % inhibition of gp120/CD4 binding ([3]; Conc 6.25 um): 82% | % inhibition of gp120/CD4 binding ([3]; Conc 12.5 um): 86% | % inhibition of gp120/CD4 binding ([3]; Conc 25 um): 91% | % inhibition of gp120/CD4 binding ([3]; Conc 50 um): 93% | % inhibition of gp120/CD4 binding ([3]; Conc 100 um): 96% | Test 2 EC50 [4]: 4 µg/mL
